Laboratory results reported in ChEMBL document CHEMBL1129641 (J Med Chem, 1996).

Legend:
[1] = molecular target: T1, Beta-2 adrenergic receptor (Homo sapiens, UniProt P07550); conditions: CHO
Target sequence in this assay (P07550 whole entry, looked up): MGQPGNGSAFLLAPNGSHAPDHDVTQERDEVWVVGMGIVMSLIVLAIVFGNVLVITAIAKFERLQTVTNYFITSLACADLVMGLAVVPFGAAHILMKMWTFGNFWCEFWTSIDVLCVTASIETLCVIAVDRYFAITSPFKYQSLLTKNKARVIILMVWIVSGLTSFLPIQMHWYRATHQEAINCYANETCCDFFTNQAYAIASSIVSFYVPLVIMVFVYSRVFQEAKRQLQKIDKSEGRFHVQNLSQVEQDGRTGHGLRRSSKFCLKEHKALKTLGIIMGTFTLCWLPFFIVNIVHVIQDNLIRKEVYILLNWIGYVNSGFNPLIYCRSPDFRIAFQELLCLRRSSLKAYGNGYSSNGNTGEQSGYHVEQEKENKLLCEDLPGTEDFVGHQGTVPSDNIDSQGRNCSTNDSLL
Description: Binding affinity for human beta-2 Adrenoceptor (AR) expressed in CHO cells by radioligand competition binding assays using [125I]-iodocyanopindolol (ICYP); PR = potency ratio relative to TMQ

[2] = molecular target: T2, Thromboxane A2 receptor (Homo sapiens) (UniProt P21731); assay: Binding affinity for human Platelet Thromboxane A2 / Prostaglandin (TP), by radioligand competition binding assays using [3H]-SQ 29548 as radioligand. PR = potency ratio relative to TMQ
T2 sequence (whole entry): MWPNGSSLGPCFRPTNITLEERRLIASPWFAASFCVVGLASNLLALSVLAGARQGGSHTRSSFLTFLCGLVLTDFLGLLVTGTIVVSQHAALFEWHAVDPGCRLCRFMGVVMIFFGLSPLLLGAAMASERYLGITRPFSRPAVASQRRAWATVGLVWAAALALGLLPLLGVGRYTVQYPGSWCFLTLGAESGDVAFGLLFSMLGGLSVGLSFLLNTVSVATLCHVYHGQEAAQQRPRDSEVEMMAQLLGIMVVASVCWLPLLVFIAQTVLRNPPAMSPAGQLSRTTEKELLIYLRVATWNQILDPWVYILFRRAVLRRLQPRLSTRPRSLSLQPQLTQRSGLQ

[3] = molecular target: T1, Beta-2 adrenergic receptor; assay: Binding affinity for human Beta-2 adrenergic receptor expressed in CHO cells by radioligand competition binding assays using [125I]iodocyanopindolol (ICYP); type: cell-based
Target sequence in this assay (P07550 whole entry): as the sequence (P07550 whole entry, looked up) above

Thromboxane A2 receptor = molecular target: T3, Thromboxane A2 receptor (Homo sapiens, UniProt P21731); assay: Binding affinity for human Platelet Thromboxane A2 / Prostaglandin (TP), by radioligand competition binding assays using [3H]-SQ 29548 as radioligand
T3 sequence (P21731 whole entry): T2 sequence (whole entry)

SMILES | PR [1] | PR [2] | Ki [3] | Ki (Thromboxane A2 receptor)
COc1cc(C[C@@H]2NCCc3cc(O)c(O)cc32)cc(OC)c1OC | 1 | 1 |  | 
Nc1c(I)cc(CC2NCCc3cc(O)c(O)cc32)cc1I (stereo not drawn) | 28 | 0.87 |  | 
Oc1cc2c(cc1O)C(Cc1cc(C(F)(F)F)cc(C(F)(F)F)c1)NCC2 (stereo not drawn) | 0.01 | 0.002 |  | 
Nc1ccc(CC2NCCc3cc(O)c(O)cc32)cc1I (stereo not drawn) | 6.8 | 0.16 | 6.46 nM | 1000 nM
COc1c(I)cc(CC2NCCc3cc(O)c(O)cc32)cc1I (stereo not drawn) | 21 | 3.5 |  | 
Oc1cc2c(cc1O)C(Cc1cc(I)c(I)c(I)c1)NCC2 (stereo not drawn) | 29 | 0.003 |  | 

Further lines, results first:

PR [1] | PR [2] | Ki [3] | Ki (Thromboxane A2 receptor) | SMILES
5.6 | 0.11 |  |  | CC(=O)Nc1ccc(CC2NCCc3cc(O)c(O)cc32)cc1I (stereo not drawn)
22 | 0.03 |  |  | O=C(Nc1ccc(CC2NCCc3cc(O)c(O)cc32)cc1I)c1ccccc1 (stereo not drawn)
